Literature values in patent US20250381170A1, “Low Concentration Delivery of an Ergoline Derivative for Treatment of a Headache” (Relevale, Inc., priority 2021, published 2025).

Tests used:
[1] = oral dosage forms
[2] = biological target: T1, serotonin 5-HT1A receptors (Homo sapiens, UniProt P08908)
T1 sequence (P08908 1-422): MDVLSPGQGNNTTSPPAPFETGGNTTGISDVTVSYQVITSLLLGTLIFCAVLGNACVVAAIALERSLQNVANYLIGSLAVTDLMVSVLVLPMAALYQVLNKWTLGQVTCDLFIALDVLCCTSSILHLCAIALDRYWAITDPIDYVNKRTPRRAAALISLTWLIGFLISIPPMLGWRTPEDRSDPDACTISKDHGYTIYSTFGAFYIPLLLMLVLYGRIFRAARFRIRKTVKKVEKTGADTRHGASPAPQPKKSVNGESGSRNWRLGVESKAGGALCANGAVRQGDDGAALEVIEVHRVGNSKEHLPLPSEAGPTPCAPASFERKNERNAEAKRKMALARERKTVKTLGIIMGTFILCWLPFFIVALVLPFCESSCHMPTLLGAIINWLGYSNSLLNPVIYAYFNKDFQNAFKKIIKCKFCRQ

[3] = system: noradrenaline α, receptors
dopamine D2L receptors = dopamine D2L receptors (Homo sapiens, UniProt P14416)
Chain of dopamine D2L receptors (P14416 whole entry): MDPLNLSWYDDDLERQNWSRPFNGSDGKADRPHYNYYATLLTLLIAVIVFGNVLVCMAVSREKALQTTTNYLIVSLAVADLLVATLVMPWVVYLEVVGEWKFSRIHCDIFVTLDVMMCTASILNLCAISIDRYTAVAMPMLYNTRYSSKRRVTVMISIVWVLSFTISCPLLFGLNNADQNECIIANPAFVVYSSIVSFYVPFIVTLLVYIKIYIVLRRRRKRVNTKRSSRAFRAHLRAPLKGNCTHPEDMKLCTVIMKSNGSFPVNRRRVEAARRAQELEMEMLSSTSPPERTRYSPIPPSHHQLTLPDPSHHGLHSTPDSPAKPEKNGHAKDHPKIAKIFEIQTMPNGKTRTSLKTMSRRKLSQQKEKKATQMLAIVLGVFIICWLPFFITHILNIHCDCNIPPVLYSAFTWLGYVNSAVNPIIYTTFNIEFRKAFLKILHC

5-HT1Dβ receptors = 5-HT1Dβ receptors (Homo sapiens, UniProt P28222)
Chain of 5-HT1Dβ receptors (P28222 whole entry): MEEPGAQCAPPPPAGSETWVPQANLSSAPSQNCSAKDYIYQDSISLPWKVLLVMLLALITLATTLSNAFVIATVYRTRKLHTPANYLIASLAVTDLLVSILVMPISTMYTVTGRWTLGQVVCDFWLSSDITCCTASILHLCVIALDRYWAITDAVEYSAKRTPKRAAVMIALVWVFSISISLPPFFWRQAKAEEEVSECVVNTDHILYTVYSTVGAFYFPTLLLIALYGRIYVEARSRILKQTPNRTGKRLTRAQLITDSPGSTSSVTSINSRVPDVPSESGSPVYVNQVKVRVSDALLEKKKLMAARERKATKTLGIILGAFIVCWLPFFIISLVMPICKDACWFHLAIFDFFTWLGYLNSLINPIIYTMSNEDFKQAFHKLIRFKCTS

[4] = biological target: T2, noradrenaline α2A receptors (Homo sapiens, UniProt P08913)
T2 sequence (P08913 1-465): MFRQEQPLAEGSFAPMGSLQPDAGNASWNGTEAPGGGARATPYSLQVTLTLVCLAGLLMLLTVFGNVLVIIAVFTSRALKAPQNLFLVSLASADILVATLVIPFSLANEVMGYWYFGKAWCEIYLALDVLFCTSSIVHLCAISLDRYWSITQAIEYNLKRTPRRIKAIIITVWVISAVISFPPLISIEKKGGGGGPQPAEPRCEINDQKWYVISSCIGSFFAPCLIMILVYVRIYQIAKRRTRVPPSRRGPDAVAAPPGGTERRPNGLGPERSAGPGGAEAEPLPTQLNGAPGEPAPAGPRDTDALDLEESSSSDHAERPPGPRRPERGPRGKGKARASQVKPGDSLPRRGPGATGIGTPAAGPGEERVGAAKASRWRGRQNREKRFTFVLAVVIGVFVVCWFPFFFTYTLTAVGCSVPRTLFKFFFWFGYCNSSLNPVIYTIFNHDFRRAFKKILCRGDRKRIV

[5] = biological target: T3, serotonin 5-HT2C receptors (Homo sapiens, UniProt P28335)
T3 sequence (P28335 33-458): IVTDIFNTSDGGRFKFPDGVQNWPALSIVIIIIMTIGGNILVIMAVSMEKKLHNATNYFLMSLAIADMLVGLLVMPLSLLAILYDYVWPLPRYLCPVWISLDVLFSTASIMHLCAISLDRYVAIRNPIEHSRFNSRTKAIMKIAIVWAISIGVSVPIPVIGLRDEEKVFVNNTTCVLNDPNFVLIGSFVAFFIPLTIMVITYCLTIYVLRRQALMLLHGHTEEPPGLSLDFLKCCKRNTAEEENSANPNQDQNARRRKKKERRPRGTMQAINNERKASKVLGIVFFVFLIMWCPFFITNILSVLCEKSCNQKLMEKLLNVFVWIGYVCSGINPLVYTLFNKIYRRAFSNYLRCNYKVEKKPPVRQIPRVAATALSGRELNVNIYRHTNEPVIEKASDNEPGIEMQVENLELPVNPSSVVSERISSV

5-HT1Dα receptors = 5-HT1Dα receptors (Homo sapiens, UniProt P28221)
Chain of 5-HT1Dα receptors (P28221 whole entry): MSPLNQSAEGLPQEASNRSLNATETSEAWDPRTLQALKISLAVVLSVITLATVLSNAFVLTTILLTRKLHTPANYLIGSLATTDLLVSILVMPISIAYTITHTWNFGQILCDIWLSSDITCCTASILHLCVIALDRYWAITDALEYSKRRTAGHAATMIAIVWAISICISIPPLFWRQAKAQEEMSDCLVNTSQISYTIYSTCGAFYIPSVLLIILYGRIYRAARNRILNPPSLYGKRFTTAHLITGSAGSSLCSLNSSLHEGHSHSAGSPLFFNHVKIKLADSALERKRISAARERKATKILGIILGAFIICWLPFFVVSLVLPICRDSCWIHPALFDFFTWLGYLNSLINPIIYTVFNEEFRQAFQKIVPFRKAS

dopamine D3 receptors = dopamine D3 receptors (Homo sapiens, UniProt P35462)
Chain of dopamine D3 receptors (P35462 whole entry): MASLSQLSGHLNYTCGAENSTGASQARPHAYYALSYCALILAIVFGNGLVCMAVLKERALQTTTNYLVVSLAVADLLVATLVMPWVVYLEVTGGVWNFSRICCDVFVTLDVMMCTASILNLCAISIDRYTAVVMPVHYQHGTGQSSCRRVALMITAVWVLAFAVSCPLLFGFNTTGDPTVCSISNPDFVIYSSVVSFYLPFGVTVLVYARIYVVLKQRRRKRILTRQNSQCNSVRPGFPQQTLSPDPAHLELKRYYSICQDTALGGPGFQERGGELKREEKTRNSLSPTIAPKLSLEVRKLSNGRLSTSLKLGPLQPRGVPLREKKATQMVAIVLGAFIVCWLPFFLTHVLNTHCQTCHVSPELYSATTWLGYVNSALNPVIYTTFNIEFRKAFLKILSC

[6] = within 24 hours after treatment; sumatriptan-treated patients

Q: Which results are given for `CN1C[C@H](C(=O)N[C@]2(C)O[C@@]3(O)[C@@H]4CCCN4C(=O)[C@H](Cc4ccccc4)N3C2=O)C[C@@H]2c3cccc4[nH]cc(c34)C[C@H]21` [DHE, Dihydroergotamine]?
A: absorption through the gut [1]: poorly absorbed; binding affinity [2]: high affinity; binding affinity [3]: high affinity; binding affinity (dopamine D2L receptors): high affinity; binding affinity (5-HT1Dβ receptors): high affinity; binding affinity [4]: high affinity; binding affinity [5]: high affinity; binding affinity (5-HT1Dα receptors): high affinity; binding affinity (dopamine D3 receptors): high affinity

Q: Which “patients with headache reoccurrence” value [6] does the source give for `CNS(=O)(=O)Cc1ccc2[nH]cc(CCN(C)C)c2c1` [sumatriptan] here?
A: 45%
